This is an account of results in US20170313664A1, “NOVEL FORM OF PYRIMIDINE COMPOUND HAVING DIBENZYLAMINE STRUCTURE” (KOWA COMPANY, LTD., priority 2013, published 2017).

This data set can be described thus: Heat stability test (remaining percentage by HPLC peak area after preservation in a glass bottle). It is filed as physicochemical. The conditions noted are these: for Remaining percentage (%) of pyrimidine compound (1): HPLC area percentage, 242 nm. The procedure: A test compound was placed in a glass bottle, and it was then preserved for a predetermined period of time under temperature conditions of 80° C., 100° C., or 120° C. Thereafter, the remaining percentage (%) of the pyrimidine compound (1) in the test compound was measured.
The remaining percentage was obtained by measuring the rate of the pyrimidine compound (1) contained in the test compound according to high performance liquid chromatography and expressing the measured value as a peak area percentage. In the measurement according to high performance liquid chromatography, an ODS column was used as a column, and a mixture of two solvents, namely, a 0.1% TFA aqueous solution and a 0.1% TFA acetonitrile solution, was used as a solvent. The detection wavelength was set at 242 nm.
From the obtained area percentage of the pyrimidine compound (1), the remaining percentage was calculated according to the following calculation formula.
Remaining percentage (%)=Area percentage of pyrimidine compound (1) after preservation/area percentage of pyrimidine compound (1) before preservation×100
As test compounds, the crystal obtained in Example 1-3 (a crystal of the pyrimidine compound (1) hydrochloride) and a free form of the pyrimidine compound (1) were used.

The mark [1] stands for this setting: After preservation at 80° C. for 72 hours.
[2] abbreviates: After preservation at 100° C. for 24 hours.
Where [3] appears, read: After preservation at 120° C. for 16 hours.

Take `CCN(C[C@H]1CC[C@H](CC(=O)O)CC1)c1ccc(C(F)(F)F)cc1CN(c1ncc(OCCS(C)(=O)=O)cn1)[C@@H](C)c1cc(C(F)(F)F)cc(C(F)(F)F)c1.Cl` [(S)-trans-{4-[({2-[({1-[3,5-bis(trifluoromethyl)phenyl]ethyl}{5-[2-(methylsulfonyl)ethoxy]pyrimidin-2-yl}amino)methyl]-4-(trifluoromethyl)phenyl}(ethyl)amino)methyl]cyclohexyl}acetic acid monohydrochloride]: the “Remaining percentage (%) of pyrimidine compound (1)” value by setting is: under setting [1], 100.0%; under setting [2], 100.0%; under setting [3], 99.5%. Where the note is “conclusion from the test results of Table 8 (80-120° C.)”, the “Heat stability (overall assessment)” value is “excellent heat stability”.

For the compound `CCN(C[C@H]1CC[C@H](CC(=O)O)CC1)c1ccc(C(F)(F)F)cc1CN(c1ncc(OCCS(C)(=O)=O)cn1)[C@@H](C)c1cc(C(F)(F)F)cc(C(F)(F)F)c1` [Free form of pyrimidine compound (1), (S)-trans-{4-[({2-[({1-[3,5-bis(trifluoromethyl)phenyl]ethyl}{5-[2-(methylsulfonyl)ethoxy]pyrimidin-2-yl}amino)methyl]-4-(trifluoromethyl)phenyl}(ethyl)amino)methyl]cyclohexyl}acetic acid], the “Remaining percentage (%) of pyrimidine compound (1)” value by setting is: under setting [1], 99.5%; under setting [2], 89.3%; under setting [3], 71.5%.
